This note sets out measurements from US20260184675A1, “CHIRAL ISOMERIC SULFITE COMPOUND AND APPLICATION THEREOF” (Chengdu Hanova BioSciences Co., Ltd, priority 2024, published 2026).

The test system of experiment [1] is eggs of Thrips. In words: Effect on hatching of eggs of Thrips, leaf disc method. It is filed as in vivo. The note with it: 100 ppm; for Hatching rate (%): 5 days after insecticide delivery. Put shortly: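 Thrip egg hatching was tested by the leaf disc method on Vicia faba discs 2.0 cm across, placed over wetted filter paper. Egg numbers on each disc were counted under a microscope before treatment. Discs were then dipped for 10 seconds in clean water or a compound solution at 100 ppm. They were kept moist under normal conditions, and hatching was surveyed five days after insecticide delivery.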

The test system of experiment [2] is eggs of Panonychus citri. The experiment is described as follows: Effect on hatching of eggs of Panonychus citri, leaf disc method. It is filed as in vivo. To be noted: 1 ppm; for Hatching rate (%), Replicate 1 / Hatching rate (%), Replicate 2 / Hatching rate (%), Replicate 3 / Number of hatched larvae 5 days after insecticide delivery, Replicate 1 / Number of hatched larvae 5 days after insecticide delivery, Replicate 2 / Number of hatched larvae 5 days after insecticide delivery, Replicate 3: Panonychus citri eggs; for Hatching rate (%), Replicate 1 / Hatching rate (%), Replicate 2 / Hatching rate (%), Replicate 3: 5 days after delivery; for Number of hatched larvae 5 days after insecticide delivery, Replicate 1 / Number of hatched larvae 5 days after insecticide delivery, Replicate 2 / Number of hatched larvae 5 days after insecticide delivery, Replicate 3: leaf disc.

In experiment [3] the test system is eggs of Harmonia axyridis. The experiment is described as follows: Effect on hatching of eggs of Harmonia axyridis, egg card immersion. The note with it: 100 ppm; for Number of hatched larvae 4 days after insecticide delivery, Replicate 1 / Number of hatched larvae 4 days after insecticide delivery, Replicate 2 / Number of hatched larvae 4 days after insecticide delivery, Replicate 3: Harmonia axyridis egg cards, immersed 30 seconds; for Hatching rate (%), Replicate 1 / Hatching rate (%), Replicate 2 / Hatching rate (%), Replicate 3: Harmonia axyridis eggs, 4 days after delivery. It is filed as in vivo. The procedure, abridged: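 Egg cards (~20 eggs each) dipped 30 s in 100 ppm insecticide, air dried and kept moist at 27° C; 5 cards per treatment, 3 replicates. Hatching assessed 4 days after treatment against pre-treatment egg counts, and control effect calculated by formula.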

The test system of experiment [4] is Magnaporthe grisea. In kind it is cell-based. The note with it: 100 ppm; for Average antifungal rate (%) / Antifungal rate of Magnaporthe grisea (%), Replicate 1 / Antifungal rate of Magnaporthe grisea (%), Replicate 2 / Antifungal rate of Magnaporthe grisea (%), Replicate 3: 96-well plate; for Average antifungal rate (%): average of 3 replicates.
[5] abbreviates: Replicate 1, listed as 1′-(S, R).
Setting [6] is: Replicate 2, listed as 1′-(S, R).
Where [7] appears, read: Replicate 3, listed as 1′-(S, R).
Where [8] appears, read: Replicate 1, listed as 1′-(S, S).
Where [9] appears, read: Replicate 2, listed as 1′-(S, S).
[10] abbreviates: Replicate 3, listed as 1′-(S, S).
The mark [11] stands for this setting: Replicate 1, listed as 19-(R, R).
The mark [12] stands for this setting: Replicate 2, listed as 19-(R, R).
[13] abbreviates: Replicate 3, listed as 19-(R, R).

Turning to `CC(COc1ccc(Cl)cc1Cl)OS(=O)OCCF` [1′-(S,R)], in experiment [1], the “inhibitory activity on the hatching of eggs of Thrips (in words)” value is “strong inhibitory activities”. Further, in experiment [1] (setting [5]), the “Hatching rate (%)” value amounted to 0.00% and the “Number of hatched larvae 5 days after insecticide delivery” value is listed as 0. Further, in experiment [1] (setting [6]), the “Hatching rate (%)” value came to 0.00% and the “Number of hatched larvae 5 days after insecticide delivery” value is on record as 0. Besides, in experiment [1] (setting [7]), the “Hatching rate (%)” value came out at 0.00% and the “Number of hatched larvae 5 days after insecticide delivery” value is 0. For the same molecule, the “inhibitory effect on the hatching of eggs of Panonychus citri (in words)” value in experiment [2] is listed as “good inhibitory effects”. In experiment [2] (listed as 1′-(S, R)), the “Hatching rate (%), Replicate 1” value was 0.00%; the “Hatching rate (%), Replicate 2” value is recorded as 0.00%; the “Hatching rate (%), Replicate 3” value came to 0.00%; the “Number of hatched larvae 5 days after insecticide delivery, Replicate 1” value (from here on “Number of hatched larvae 5 days … Replicate 1”) is reported as 0. For the same molecule, in experiment [2] (listed as 1′-(S, R)), the “Number of hatched larvae 5 days after insecticide delivery, Replicate 2” value (from here on “Number of hatched larvae 5 days … Replicate 2”) is 0 and the “Number of hatched larvae 5 days after insecticide delivery, Replicate 3” value (from here on “Number of hatched larvae 5 days … Replicate 3”) stood at 0. The “inhibitory activity on the hatching of eggs of Harmonia axyridis (in words)” value in experiment [3] was “strong inhibitory activities”. In addition, in experiment [3] (listed as 1′-(S, R)), the “Number of hatched larvae 4 days after insecticide delivery, Replicate 1” value (from here on “Number of hatched larvae 4 days … Replicate 1”) is 0; the “Number of hatched larvae 4 days after insecticide delivery, Replicate 2” value (from here on “Number of hatched larvae 4 days … Replicate 2”) is listed as 0; the “Number of hatched larvae 4 days after insecticide delivery, Replicate 3” value (from here on “Number of hatched larvae 4 days … Replicate 3”) came to 0; the “Hatching rate (%), Replicate 1” value turned out to be 0.00%. Also, in experiment [3] (listed as 1′-(S, R)), the “Hatching rate (%), Replicate 2” value was determined as 0.00% and the “Hatching rate (%), Replicate 3” value stood at 0.00%. Further, in experiment [4], the “inhibitory rate against Magnaporthe grisea (in words)” value (from here on “inhibitory rate”) is given as “strong inhibitory rate”; the “Average antifungal rate (%)” value was determined as 99.22%; the “Antifungal rate of Magnaporthe grisea (%), Replicate 1” value (“Antifungal rate … (%), Replicate 1” below) was determined as 95.80%; the “Antifungal rate of Magnaporthe grisea (%), Replicate 2” value (from here on “Antifungal rate … (%), Replicate 2”) turned out to be 102.01%. For the same molecule, the “Antifungal rate of Magnaporthe grisea (%), Replicate 3” value (shortened to “Antifungal rate … (%), Replicate 3”) in experiment [4] is on record as 99.85%.
In the case of `CC(COc1ccc(Cl)cc1Cl)OS(=O)OCCF` [1′-(S,S)], in experiment [1] (setting [8]), the “Hatching rate (%)” value was 14.10% and the “Number of hatched larvae 5 days after insecticide delivery” value was 11. In addition, in experiment [1] (setting [9]), the “Hatching rate (%)” value amounted to 14.63% and the “Number of hatched larvae 5 days after insecticide delivery” value was 18. In experiment [1] (setting [10]), the “Hatching rate (%)” value turned out to be 16.04% and the “Number of hatched larvae 5 days after insecticide delivery” value is on record as 17. In addition, in experiment [2] (listed as 1′-(S, S)), the “Hatching rate (%), Replicate 1” value is reported as 14.73%; the “Hatching rate (%), Replicate 2” value is 16.05%; the “Hatching rate (%), Replicate 3” value is on record as 16.67%; the “Number of hatched larvae 5 days … Replicate 1” value is 19. Besides, in experiment [2] (listed as 1′-(S, S)), the “Number of hatched larvae 5 days … Replicate 2” value is given as 13 and the “Number of hatched larvae 5 days … Replicate 3” value was 18. Further, in experiment [3] (listed as 1′-(S, S)), the “Number of hatched larvae 4 days … Replicate 1” value was 18; the “Number of hatched larvae 4 days … Replicate 2” value is on record as 19; the “Number of hatched larvae 4 days … Replicate 3” value amounted to 21; the “Hatching rate (%), Replicate 1” value is 19.57%. In experiment [3] (listed as 1′-(S, S)), the “Hatching rate (%), Replicate 2” value is 19.39% and the “Hatching rate (%), Replicate 3” value is reported as 18.69%. Also, in experiment [4], the “inhibitory rate” value is listed as “strong inhibitory rate”; the “Average antifungal rate (%)” value is given as 81.44%; the “Antifungal rate … (%), Replicate 1” value is 84.82%; the “Antifungal rate … (%), Replicate 2” value was 83.06%. The “Antifungal rate … (%), Replicate 3” value in experiment [4] is 76.44%.
Consider `CCC(COc1ccc(Cl)cc1Cl)OS(=O)OCCF` [19-(R,R)], for which, in experiment [1] (setting [11]), the “Hatching rate (%)” value is 12.63% and the “Number of hatched larvae 5 days after insecticide delivery” value turned out to be 12. In addition, in experiment [1] (setting [12]), the “Hatching rate (%)” value came to 13.46% and the “Number of hatched larvae 5 days after insecticide delivery” value was determined as 14. Besides, in experiment [1] (setting [13]), the “Hatching rate (%)” value is recorded as 13.04% and the “Number of hatched larvae 5 days after insecticide delivery” value is on record as 15. In experiment [2] (listed as 19-(R, R)), the “Hatching rate (%), Replicate 1” value is reported as 7.52%; the “Hatching rate (%), Replicate 2” value is given as 8.41%; the “Hatching rate (%), Replicate 3” value is listed as 8.33%; the “Number of hatched larvae 5 days … Replicate 1” value was 10. In addition, in experiment [2] (listed as 19-(R, R)), the “Number of hatched larvae 5 days … Replicate 2” value is on record as 9 and the “Number of hatched larvae 5 days … Replicate 3” value turned out to be 7. Further, in experiment [3] (listed as 19-(R, R)), the “Number of hatched larvae 4 days … Replicate 1” value is given as 14; the “Number of hatched larvae 4 days … Replicate 2” value is 15; the “Number of hatched larvae 4 days … Replicate 3” value was found to be 14; the “Hatching rate (%), Replicate 1” value stood at 14.43%. In experiment [3] (listed as 19-(R, R)), the “Hatching rate (%), Replicate 2” value is reported as 14.42% and the “Hatching rate (%), Replicate 3” value is listed as 13.73%. Further, in experiment [4], the “inhibitory rate” value is listed as “strong inhibitory rate”; the “Average antifungal rate (%)” value is recorded as 82.77%; the “Antifungal rate … (%), Replicate 1” value was determined as 81.29%; the “Antifungal rate … (%), Replicate 2” value is on record as 83.56%. For the same molecule, the “Antifungal rate … (%), Replicate 3” value in experiment [4] was 83.45%.
